Entries after “also recorded” stand apart in the source; their conditions may differ.
Assays:
PLC/PRF/5 cells = assay: MTT cytotoxicity assay, PLC/PRF/5; format: cell-based; details: for cytotoxicity (cell viability): PLC/PRF/5, ZAK-I-57 24 h, ZAK-I-64 and ZAK-I-68 48 h
Description: (§1) Huh7 and PLC/PRF/5 (CRL-8024™) cells were purchased from Thermo Fisher Scientific and the ATCC, respectively. MIHA was kindly provided by Dr. J. R. Chowdhury, Albert Einstein College of Medicine, New York. The cell lines were cultured in Dulbecco's modified Eagle medium (DMEM, Gibco, MA, USA) supplemented with 10% fetal bovine serum (FBS, BI, MA, USA) and 1× penicillin-streptomycin solution (Solarbio) at 37° C. in a humid, 5% CO2 atmosphere.
(§2) Huh7 and PLC/PRF/5 cells at a density of 5×10^3 cells/well were cultured in 96-well plates and incubated at 37° C. in 5% CO2. Both cell lines were treated with different concentrations of benzoxazinone derivatives (ZAK-I-57, ZAK-I-64, and ZAK-I-68). Both cell lines were incubated with ZAK-I-57 for 24 h and for 48 h with ZAK-I-64 and ZAK-I-68. MTT (3-[4,5-dimethylthiazol-2-yl]-2,5-diphenyltetrazolium bromide) solution was then added to each well and incubated for 3 h in a CO2 atmosphere at 37° C. Insoluble formazan crystals were dissolved by adding 100 μL of dimethyl sulfoxide (DMSO) to each well, followed by orbital agitation for 10 min. A minimum of three biological replicates were analyzed using a plate reader to determine IC50. The same experiment was performed with MIHA hepatocyte cells to evaluate the selectivity cytotoxicity of ZAK-I-57.

ERBB2 = assay: Western blot of ERBB2 expression in Huh7 cells; format: cell-based
Description: (§3) The Huh7 cells and tumor tissues were lysed on ice using the lysis buffer. Protein concentration was quantified using Bradford assay (Bio-Rad, Hercules, CA, USA). Equivalent amounts of protein (25-50 μg) were loaded onto 10% sodium dodecyl sulfate-polyacrylamide gel electrophoresis (SDS-PAGE) and transferred to polyvinylidene fluoride (PVDF) membranes. Membranes were blocked with 5% non-fat milk in Tris-buffered saline Tween 20 (TBST) for an hour. The blots were incubated with primary antibodies (EGFR (4267S, Cell signaling technology, MA, USA), c-Myc (5605S, Cell signaling technology, MA, USA), Bax (2772S, Cell signaling technology, MA, USA), Bcl-2 (sc-7382, Santa Cruze, TX, USA), ERBB2 (2165S, Cell signaling technology, MA, USA), and α-tubulin (62204, Invitrogen, MA, USA), 1:1000) at 4° C. overnight. Subsequently, the membranes were washed thrice (15 min each) with TBST solution and incubated for 1 h with secondary horseradish peroxidase-conjugated antibodies (NA934 and NA931, Cytiva, MA, USA, 1:5000). Blots were then detected using an ECL kit and photographed using a ChemiDoc Imaging System (Bio-Rad, MA, USA). The bands were quantified using the ImageJ software (NIH, USA). The intensities of the bands for each protein sample were normalized to those of α-tubulin (internal standard protein). Quantitative data are presented as a fold change of untreated control.

c-Myc = assay: Western blot of c-Myc expression in Huh7 cells; format: cell-based
Description: as §3

Huh7 cells = assay: MTT cytotoxicity assay, Huh7; format: cell-based; details: for cytotoxicity (cell viability): Huh7, ZAK-I-57 24 h, ZAK-I-64 and ZAK-I-68 48 h
Description: as §1, §2

EGFR = assay: Western blot of EGFR expression in Huh7 cells; format: cell-based
Description: as §3

HCC PDTX mouse model = assay: HCC patient-derived tumor xenograft (PDTX #1) mouse model; format: in vivo, mice; details: for body weight / tumor cellularity (H&E staining) / gross anatomical examination of vital organs / histopathology of vital organs (H&E): ZAK-I-57 15 and 30 mg/kg, sorafenib 30 mg/kg; for gross anatomical examination of vital organs / histopathology of vital organs (H&E): heart, liver, spleen, lung, kidney
Description: (§4) Male BALB/c nude mice (6-8 weeks old) were obtained from the Centralized Animal Facilities at the Hong Kong Polytechnic University. All animals were bred and housed under specific pathogen-free conditions, with access to sterile food and water. Environmental conditions were strictly controlled, with temperature maintained at 23±2° C., relative humidity between 30%-70%, and a 12-hour light/dark cycle. Mice were group-housed in accordance with institutional guidelines for recommended stocking density. The animal experiments were conducted according to institutional guidelines, and the experimental procedures were approved by the PolyU Animal Experimentation Ethics Committee (Ref. No. 19-20/57-ABCT-R-STUDENT).
The procedure for the establishment of PDTX #1 was previously described. Tumor cells from PDTX #1 was inoculated subcutaneously on the back of nude mice. When the tumors reached approximately 1,000 mm^3, mice with the first generation of xenografts (P1) were sacrificed, and the xenografts were isolated and expanded for the second generation (P2). When P2 xenografts reached an average volume of 70 mm^3, mice were subjected to ZAK-I-57 and sorafenib treatment. The development of PDTX was approved by the Institutional Review Board of the University of Hong Kong/Hospital Authority Hong Kong West Cluster (UW 17-056) and informed consents were obtained from patients.
as §3
(§5) Tumors were fixed in 4% formalin, embedded in paraffin, and sectioned at […] thickness for IHC staining. Ki-67 primary antibody (ab16667, Abcam, MA, USA) and anti-mouse IgG recombinant secondary antibody (7056S, Cell Signaling Technology, MA, USA) were used for IHC staining. Hemotoxin (Invitrogen, MA, USA) was used to stain nuclei. The number of positively stained cells in Ki-67-stained slides was evaluated using ImageJ software (NIH, MD, USA).
(§6) H&E staining was performed on histological sections of organs (heart, spleen, kidney, liver, and lung) to examine the toxicity of ZAK-I-57 in PLC/PRF/5 tumor-bearing and PDTX model mice. Briefly, the histological slides were deparaffinized using 100% xylene (v/v). The slides were then washed several times with ethanol solutions of various concentrations (70-100%, v/v) and immersed in hematoxylin for 5 min, followed by a quick dip in acidic alcohol. Next, the slides were immersed in Scott's tap water for 3 min and in 1% eosin for 30 s. Finally, the slides were dehydrated using ethanol solutions of various concentrations (70%-100%, v/v) and 100% xylene (v/v) and mounted using a mounting medium.

[1] = system: PLC/PRF/5 tumor-bearing mice; assay: PLC/PRF/5 tumor-bearing mouse model; format: in vivo; details: for tumor cellularity (H&E staining) / gross anatomical examination of vital organs / histopathology of vital organs (H&E) / body weight: sorafenib 30 mg/kg; for tumor cellularity (H&E staining): vs vehicle control; for gross anatomical examination of vital organs / histopathology of vital organs (H&E): heart, liver, spleen, lung, kidney; for body weight: oral gavage daily, 20 days
Description: as §4
PLC/PRF/5 cells (5×10^5) were suspended in 100 μL PBS with Matrigel (1:1 ratio) and injected into the right back of nude mice. Small tumors (<70 mm^3) were formed two weeks after cell inoculation. Mice were then randomized into the vehicle control group, ZAK-I-57 treated groups (15 mg/kg and 30 mg/kg), or sorafenib (30 mg/kg) groups. Mice were administered 200 μL of vehicle water and drugs by oral gavage daily for three weeks. Tumor size was measured twice a week, and tumor volumes were calculated using the formula [(length×width×depth)/2 mm^3] while each mouse was weighed. At the end of the experiment, the mice were sacrificed, and the tumors and organs were collected for further experiments.
as §3, §5, §6

[2] = MTT cytotoxicity assay, MIHA normal hepatocytes; format: cell-based; details: human, MIHA normal hepatocyte cells, all concentrations, read-out: cell viability
Description: as §1, §2

MIHA cells = assay: MTT cytotoxicity assay, MIHA normal hepatocytes; format: cell-based; details: Hepatocyte
Description: as §1, §2

[3] = ZAK-I-57 15 and 30 mg/kg, vs vehicle control and sorafenib 30 mg/kg

Cc1ccccc1-c1nc2cc([N+](=O)[O-])ccc2c(=O)o1 [ZAK-I-64, 2-(2-methylphenyl)-7-nitro-4H-3,1-benzoxazin-4-one]
cytotoxicity (cell viability) (PLC/PRF/5 cells): concentration-dependent increase in cytotoxicity | ERBB2 expression (ERBB2; Huh7, 48 h treatment): no appreciable effect | ERBB2 expression (ERBB2; Huh7, 72 h treatment): significant downregulation | c-Myc expression (c-Myc; Huh7, 48 h treatment): no appreciable effect | c-Myc expression (c-Myc; Huh7, 72 h treatment): significant downregulation | cytotoxicity (cell viability) (Huh7 cells): concentration-dependent increase in cytotoxicity | EGFR expression (EGFR; Huh7, 48 h treatment): no appreciable effect | EGFR expression (EGFR; Huh7, 72 h treatment): significant downregulation

O=c1oc(-c2ccc3ccccc3c2)nc2cc([N+](=O)[O-])ccc12 [ZAK-I-57, 2-(naphthalen-2-yl)-7-nitro-4H-3,1-benzoxazin-4-one]
IC50 against HCC cells, compared with sorafenib and artesunate (PLC/PRF/5 cells; HCC cells (PLC/PRF/5)): lower than sorafenib and artesunate | cytotoxicity (cell viability) (PLC/PRF/5 cells): concentration-dependent increase in cytotoxicity | percentage of tumor growth (HCC PDTX mouse model; 15 mg/kg and 30 mg/kg, vs vehicle control): markedly diminished | Bax expression in tumor (western blot) (HCC PDTX mouse model; 30 mg/kg): significantly upregulating | Bcl-2 expression in tumor (western blot) (HCC PDTX mouse model; 30 mg/kg): downregulating | EGFR expression in tumor (western blot) (HCC PDTX mouse model; 30 mg/kg): downregulated | Ki-67 suppression compared with sorafenib (HCC PDTX mouse model; 30 mg/kg): significantly greater Ki-67 suppression than sorafenib | c-Myc expression in tumor (western blot) (HCC PDTX mouse model; 30 mg/kg): downregulated | tumor cell density and necrosis (H&E staining) (HCC PDTX mouse model; 30 mg/kg): substantial decrease in cell density and necrosis | tumor volume reduction compared with sorafenib (HCC PDTX mouse model; 30 mg/kg): outperforming sorafenib | tumor weight (HCC PDTX mouse model; 30 mg/kg): significant reduction; also recorded: outperforming sorafenib | Ki-67 expression in tumor (IHC) (HCC PDTX mouse model; 15 and 30 mg/kg): inhibition of Ki-67 expression | tumor progression (tumor volume) (HCC PDTX mouse model; 15 and 30 mg/kg): significantly inhibited tumor progression in a dose-dependent manner | body weight (HCC PDTX mouse model): no significant difference | tumor cellularity (H&E staining) (HCC PDTX mouse model; vs vehicle control): marked reduction in tumor cellularity | gross anatomical examination of vital organs (HCC PDTX mouse model): maintained tissue morphology comparable to the vehicle control | histopathology of vital organs (H&E) (HCC PDTX mouse model): no histological abnormalities were observed | ERBB2 expression (ERBB2; Huh7, 48 h treatment): significant downregulation | c-Myc expression (c-Myc; Huh7, 48 h treatment): significant downregulation | IC50 against HCC cells, compared with sorafenib and artesunate (Huh7 cells; HCC cells (Huh7)): lower than sorafenib and artesunate | cytotoxicity (cell viability) (Huh7 cells): concentration-dependent increase in cytotoxicity | EGFR expression (EGFR; Huh7, 48 h treatment): significant downregulation | Ki-67 suppression compared with sorafenib ([1]; 30 mg/kg): significantly greater Ki-67 suppression than sorafenib | tumor cell density and necrosis (H&E staining) ([1]; 30 mg/kg): substantial decrease in cell density and necrosis | tumor volume reduction compared with sorafenib ([1]; 30 mg/kg): outperforming sorafenib | tumor weight reduction compared with sorafenib ([1]; 30 mg/kg): outperforming sorafenib | Bax expression in tumor (western blot) ([1]; 30 mg/kg, vs control): increase in the expression | Bcl-2 expression in tumor (western blot) ([1]; 30 mg/kg, vs control): significantly attenuated | EGFR expression in tumor (western blot) ([1]; 30 mg/kg, vs control): significantly attenuated | c-Myc expression in tumor (western blot) ([1]; 30 mg/kg, vs control): significantly attenuated | Ki-67 expression in tumor (IHC) ([1]; 15 and 30 mg/kg): inhibition of Ki-67 expression | tumor growth inhibition ([1]; 15 and 30 mg/kg): significantly inhibited tumor growth | tumor cellularity (H&E staining) ([1]; ZAK-I-57 15 and 30 mg/kg): marked reduction in tumor cellularity | tumor volume [1, 3]: marked reduction | tumor weight [1, 3]: marked reduction | gross anatomical examination of vital organs ([1]; ZAK-I-57 15 and 30 mg/kg): maintained tissue morphology comparable to the vehicle control | histopathology of vital organs (H&E) ([1]; ZAK-I-57 15 and 30 mg/kg): no histological abnormalities were observed | body weight ([1]; ZAK-I-57 15 and 30 mg/kg): no significant changes | viability at 24 h ([2]; 24 h): > 90% | viability at 48 h ([2]; 48 h): > 90% | IC50 (MIHA cells; 24 h): > 100 µM | IC50 (MIHA cells; 48 h): > 100 µM | IC50 (MIHA cells; time not stated): > 100 µM

O=c1oc(-c2ccc(O)cc2)nc2cc([N+](=O)[O-])ccc12 [ZAK-I-68, 2-(4-hydroxyphenyl)-7-nitro-4H-3,1-benzoxazin-4-one]
cytotoxicity (cell viability) (PLC/PRF/5 cells): concentration-dependent increase in cytotoxicity | ERBB2 expression (ERBB2; Huh7, 48 h treatment): no appreciable effect | ERBB2 expression (ERBB2; Huh7, 72 h treatment): significant downregulation | c-Myc expression (c-Myc; Huh7, 48 h treatment): no appreciable effect | c-Myc expression (c-Myc; Huh7, 72 h treatment): significant downregulation | cytotoxicity (cell viability) (Huh7 cells): concentration-dependent increase in cytotoxicity | EGFR expression (EGFR; Huh7, 48 h treatment): no appreciable effect | EGFR expression (EGFR; Huh7, 72 h treatment): significant downregulation

CNC(=O)c1cc(Oc2ccc(NC(=O)Nc3ccc(Cl)c(C(F)(F)F)c3)cc2)ccn1 [sorafenib, reference compound]
body weight (HCC PDTX mouse model): Slight variations | tumor cellularity (H&E staining) (HCC PDTX mouse model; vs vehicle control): marked reduction in tumor cellularity | gross anatomical examination of vital organs (HCC PDTX mouse model): maintained tissue morphology comparable to the vehicle control | histopathology of vital organs (H&E) (HCC PDTX mouse model): absence of significant pathological changes | tumor cellularity (H&E staining) ([1]; ZAK-I-57 15 and 30 mg/kg): marked reduction in tumor cellularity | gross anatomical examination of vital organs ([1]; ZAK-I-57 15 and 30 mg/kg): maintained tissue morphology comparable to the vehicle control | histopathology of vital organs (H&E) ([1]; ZAK-I-57 15 and 30 mg/kg): absence of significant pathological changes | body weight ([1]; ZAK-I-57 15 and 30 mg/kg): only slight variation

Reference: patent publication US20250375454A1, “METHODS FOR TREATING HEPATOCELLULAR CARCINOMA” (THE HONG KONG POLYTECHNIC UNIVERSITY, priority 2024, published 2025)
